# Laboratory results: patent US6472348B1, “Pyridone derivatives and herbicides” (Kumiai Chemical Industry Co., Ltd., priority 1996, dated 2002)
# Key:
# Format in all cases: in vivo
# green foxtail (Se) [1] = test: Test Example 4: crop plant selectivity by upland field soil treatment (cotton), herbicidal effects; design: scale not given here; details: dose 6.3 g ai/10 a, evaluated 21st day after application
# How it was run: (§1)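 Cotton is sown alongside weeds in pots of sand, covered with soil, and the soil surface is treated. After greenhouse growth, herbicidal activity and phytotoxicity are graded on the 21st day.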
# pale smartweed (Po) [2] = test: as above; design: scale not given here; details: dose 6.3 g ai/10 a, evaluated 21st day after application
# How it was run: as §1
# China jute (Ab) [3] = test: as above; design: scale not given here; details: dose 6.3 g ai/10 a, evaluated 21st day after application
# How it was run: as §1
# [4] = system: common lambsquarters (Ch); test: as above; design: scale not given here; details: dose 6.3 g ai/10 a, evaluated 21st day after application
# How it was run: as §1
# slender amaranth (Am) [5] = test: as above; design: scale not given here; details: dose 6.3 g ai/10 a, evaluated 21st day after application
# How it was run: as §1
# cotton (Go) = test: Test Example 4: crop plant selectivity by upland field soil treatment (cotton), phytotoxicity; design: scale not given here; details: dose 6.3 g ai/10 a, evaluated 21st day after application
# How it was run: as §1
# wheat (Tr) = test: Test Example 5: crop plant selectivity by upland field soil treatment (wheat), phytotoxicity; design: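 grade of crop injury; 5 = at least 90%; 4 = 70 to 90%; 3 = 50 to 70%; 2 = 30 to 50%; 1 = 10 to 30%; 0 = under 10%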; details: dose 6.3 g ai/10a, 21st day after application
# How it was run: (§2)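 Scores are visual ratings of herbicidal effect or wheat phytotoxicity, recorded on the 21st day after soil treatment of pots sown with wheat and weeds and kept in a greenhouse.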
# bulrush (Sc) = test: Test Example 1: herbicidal effects by paddy field soil treatment; details: 100 g of the active ingredient per 10 ares, 21st day after the application, index 0-5 of Table 47;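 note: grade of growth control; 5 = at least 90%; 4 = 70 to 90%; 3 = 50 to 70%; 2 = 30 to 50%; 1 = 10 to 30%; 0 = under 10%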
# How it was run: (§3)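 Scoring of herbicidal effect came 21 days after application of 100 g active ingredient per 10 ares to flooded (3 cm) paddy-soil pots sown with barnyardgrass, monochoria and bulrush, kept in a greenhouse.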
# monochoria (Mo) = test: as above; details: 100 g of the active ingredient per 10 ares, 21st day after the application, index 0-5 of Table 47;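 note: grade of growth control; 5 = at least 90%; 4 = 70 to 90%; 3 = 50 to 70%; 2 = 30 to 50%; 1 = 10 to 30%; 0 = under 10%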
# How it was run: as §3
# barnyardgrass (Ec) [6] = test: as above; details: 100 g of the active ingredient per 10 ares, 21st day after the application, index 0-5 of Table 47
# How it was run: as §3
# soybean (Gl) = test: Test Example 6: crop plant selectivity by upland field soil treatment (soybean), phytotoxicity; design: scale not given here; details: dose 6.3 g ai/10a, 21st day after application
# How it was run: (§4)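 Soybean and weeds sown in sand-filled pots and covered with soil, then treated by soil application. Plants grown in a greenhouse, with herbicidal effect and crop phytotoxicity scored on day 21 after application against a fixed rating scale.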
# rice flatsedge (Ci) [7] = test: Test Example 3: herbicidal effects by upland field foliage treatment; design: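 grade of growth control; 5 = at least 90%; 4 = 70 to 90%; 3 = 50 to 70%; 2 = 30 to 50%; 1 = 10 to 30%; 0 = under 10%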
# How it was run: (§5)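 Test plants had been raised from seed for 2 weeks in a greenhouse, in soil-covered sand pots of 120 cm^2, and were returned there after spraying.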
# pale smartweed (Po) [8] = test: as above; design: scale not given here
# How it was run: as §5
# Diaitaria ciliaris (Di) = test: as above; design: scale not given here
# How it was run: as §5
# [9] = system: common lambsquarters (Ch); test: as above; design: scale not given here
# How it was run: as §5
# barnyardgrass (Ec) [10] = test: as above; design: scale not given here
# How it was run: as §5
# slender amaranth (Am) [11] = test: as above; design: scale not given here
# How it was run: as §5
# corn (Ze) = test: Test Example 7: crop plant selectivity by upland field soil treatment (corn), phytotoxicity; design: scale not given here; details: dose 6.3 g ai/10a, 21st day after application
# Description: (§6) (Test on Crop Plant Selectivity by Upland Field Soil Treatment)
# (§7) In a plastic pot (surface area: 600 cm^2) filled with sand, corn (Ze), green foxtail (Se), pale smartweed (Po), slender amaranth (Am), common lambsquarters (Ch) and China jute (Ab) were sown and covered with soil. […] The plants were then cultured in a green house, and the evaluation of the herbicidal effects and phytotoxicity was conducted on the 21st day after the application in accordance with the standards as identified in Table 47.
# green foxtail (Se) [12] = test: Test Example 7: crop plant selectivity by upland field soil treatment (corn), herbicidal effects; design: scale not given here; details: dose 6.3 g ai/10a, 21st day after application
# Description: as §6, §7
# pale smartweed (Po) [13] = test: as above; design: scale not given here; details: dose 6.3 g ai/10a, 21st day after application
# Description: as §6, §7
# China jute (Ab) [14] = test: as above; design: scale not given here; details: dose 6.3 g ai/10a, 21st day after application
# Description: as §6, §7
# [15] = system: common lambsquarters (Ch); test: as above; design: scale not given here; details: dose 6.3 g ai/10a, 21st day after application
# Description: as §6, §7
# slender amaranth (Am) [16] = test: as above; design: scale not given here; details: dose 6.3 g ai/10a, 21st day after application
# Description: as §6, §7
# green foxtail (Se) [17] = test: Test Example 6: crop plant selectivity by upland field soil treatment (soybean), herbicidal effects; design: scale not given here; details: dose 6.3 g ai/10a, 21st day after application
# How it was run: as §4
# pale smartweed (Po) [18] = test: as above; design: scale not given here; details: dose 6.3 g ai/10a, 21st day after application
# How it was run: as §4
# China jute (Ab) [19] = test: as above; design: scale not given here; details: dose 6.3 g ai/10a, 21st day after application
# How it was run: as §4
# [20] = system: common lambsquarters (Ch); test: as above; design: scale not given here; details: dose 6.3 g ai/10a, 21st day after application
# How it was run: as §4
# slender amaranth (Am) [21] = test: as above; design: scale not given here; details: dose 6.3 g ai/10a, 21st day after application
# How it was run: as §4
# rice flatsedge (Ci) [22] = test: Test Example 2: herbicidal effects by upland field soil treatment; details: 100 g of the active ingredient per 10 ares, evaluated on the 21st day after application;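 note: grade of growth control; 5 = at least 90%; 4 = 70 to 90%; 3 = 50 to 70%; 2 = 30 to 50%; 1 = 10 to 30%; 0 = under 10%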
# Source text: (§8) (Test on Herbicidal Effects by Upland Field Soil Treatment)
# pale smartweed (Po) [23] = test: as above; details: 100 g of the active ingredient per 10 ares, evaluated on the 21st day after application
# Source text: as §8
# [24] = system: common lambsquarters (Ch); test: as above; details: 100 g of the active ingredient per 10 ares, evaluated on the 21st day after application
# Source text: as §8
# Digitaria ciliaris (Di) = test: as above; details: 100 g of the active ingredient per 10 ares, evaluated on the 21st day after application;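 note: grade of growth control; 5 = at least 90%; 4 = 70 to 90%; 3 = 50 to 70%; 2 = 30 to 50%; 1 = 10 to 30%; 0 = under 10%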
# Source text: as §8
# barnyardgrass (Ec) [25] = test: as above; details: 100 g of the active ingredient per 10 ares, evaluated on the 21st day after application
# Source text: as §8
# slender amaranth (Am) [26] = test: as above; details: 100 g of the active ingredient per 10 ares, evaluated on the 21st day after application
# Source text: as §8
# green foxtail (Se) [27] = test: Test Example 5: crop plant selectivity by upland field soil treatment (wheat), herbicidal effects; design: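 grade of growth control; 5 = at least 90%; 4 = 70 to 90%; 3 = 50 to 70%; 2 = 30 to 50%; 1 = 10 to 30%; 0 = under 10%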; details: dose 6.3 g ai/10a, 21st day after application
# How it was run: as §2
# pale smartweed (Po) [28] = test: as above; design: scale not given here; details: dose 6.3 g ai/10a, 21st day after application
# How it was run: as §2
# China jute (Ab) [29] = test: as above; design: scale not given here; details: dose 6.3 g ai/10a, 21st day after application
# How it was run: as §2
# [30] = system: common lambsquarters (Ch); test: as above; design: scale not given here; details: dose 6.3 g ai/10a, 21st day after application
# How it was run: as §2
# slender amaranth (Am) [31] = test: as above; design: scale not given here; details: dose 6.3 g ai/10a, 21st day after application
# How it was run: as §2
# [32] = 100 g of the active ingredient per 10 ares, evaluated on the 14th day after treatment
# [33] = 100 g active ingredient per 10 ares, evaluated 14th day after treatment
Compound,Herbicidal effects Se (green foxtail (Se) [1]),Herbicidal effects Po (pale smartweed (Po) [2]),Herbicidal effects Ab (China jute (Ab) [3]),Herbicidal effects Ch [4],Herbicidal effects Am (slender amaranth (Am) [5]),Phytotoxicity Go (cotton (Go)),Phytotoxicity Tr (wheat (Tr)),Herbicidal effects Sc (bulrush (Sc)),Herbicidal effects Mo (monochoria (Mo)),Herbicidal effects Ec (barnyardgrass (Ec) [6]),Phytotoxicity Gl (soybean (Gl)),Phytotoxicity Ze (corn (Ze)),Herbicidal effects Se (green foxtail (Se) [12]),Herbicidal effects Po (pale smartweed (Po) [13]),Herbicidal effects Ab (China jute (Ab) [14]),Herbicidal effects Ch [15],Herbicidal effects Am (slender amaranth (Am) [16]),Herbicidal effects Se (green foxtail (Se) [17]),Herbicidal effects Po (pale smartweed (Po) [18]),Herbicidal effects Ab (China jute (Ab) [19]),also measured
Cn1c(C(F)(F)F)ccc(-c2cc(OCC(F)F)c(Cl)cc2F)c1=O [1-173],5,5,5,5,5,1,1,5,5,5,1,1,5,5,5,5,5,5,5,5,"Herbicidal effects Ci (rice flatsedge (Ci) [7]; [32]): 5; Herbicidal effects Po (pale smartweed (Po) [8]; [32]): 5; Herbicidal effects Di (Diaitaria ciliaris (Di); [32]): 5; Herbicidal effects Ch [9, 32]: 5; Herbicidal effects Ec (barnyardgrass (Ec) [10]; [32]): 5; Herbicidal effects Am (slender amaranth (Am) [11]; [32]): 5; Herbicidal effects Ch [20]: 5; Herbicidal effects Am (slender amaranth (Am) [21]): 5; Herbicidal effects Ci (rice flatsedge (Ci) [22]): 5; Herbicidal effects Po (pale smartweed (Po) [23]): 5; Herbicidal effects Ch [24]: 5; Herbicidal effects Di (Digitaria ciliaris (Di)): 5; Herbicidal effects Ec (barnyardgrass (Ec) [25]): 5; Herbicidal effects Am (slender amaranth (Am) [26]): 5; Herbicidal effects Se (green foxtail (Se) [27]): 5; Herbicidal effects Po (pale smartweed (Po) [28]): 5; Herbicidal effects Ab (China jute (Ab) [29]): 5; Herbicidal effects Ch [30]: 5; Herbicidal effects Am (slender amaranth (Am) [31]): 5"
COc1cc(Cl)cc(F)c1-c1ccc(C(F)(F)F)n(C)c1=O [1′-1],5,5,5,5,5,0,1,5,5,5,1,1,5,5,5,5,5,5,5,5,"Herbicidal effects Ci (rice flatsedge (Ci) [7]; [33]): 5; Herbicidal effects Po (pale smartweed (Po) [8]; [33]): 5; Herbicidal effects Di (Diaitaria ciliaris (Di); [33]): 5; Herbicidal effects Ch [9, 33]: 5; Herbicidal effects Ec (barnyardgrass (Ec) [10]; [33]): 5; Herbicidal effects Am (slender amaranth (Am) [11]; [33]): 5; Herbicidal effects Ch [20]: 5; Herbicidal effects Am (slender amaranth (Am) [21]): 5; Herbicidal effects Ci (rice flatsedge (Ci) [22]): 5; Herbicidal effects Po (pale smartweed (Po) [23]): 5; Herbicidal effects Ch [24]: 5; Herbicidal effects Di (Digitaria ciliaris (Di)): 5; Herbicidal effects Ec (barnyardgrass (Ec) [25]): 5; Herbicidal effects Am (slender amaranth (Am) [26]): 5; Herbicidal effects Se (green foxtail (Se) [27]): 5; Herbicidal effects Po (pale smartweed (Po) [28]): 5; Herbicidal effects Ab (China jute (Ab) [29]): 5; Herbicidal effects Ch [30]: 5; Herbicidal effects Am (slender amaranth (Am) [31]): 5"
C#CCOc1cc(Cl)cc(F)c1-c1ccc(C(F)(F)F)n(C)c1=O [1′-4],5,5,5,5,5,0,1,5,5,5,1,1,5,5,5,5,5,5,5,5,"Herbicidal effects Ci (rice flatsedge (Ci) [7]; [33]): 5; Herbicidal effects Po (pale smartweed (Po) [8]; [33]): 5; Herbicidal effects Di (Diaitaria ciliaris (Di); [33]): 5; Herbicidal effects Ch [9, 33]: 5; Herbicidal effects Ec (barnyardgrass (Ec) [10]; [33]): 5; Herbicidal effects Am (slender amaranth (Am) [11]; [33]): 5; Herbicidal effects Ch [20]: 5; Herbicidal effects Am (slender amaranth (Am) [21]): 5; Herbicidal effects Ci (rice flatsedge (Ci) [22]): 5; Herbicidal effects Po (pale smartweed (Po) [23]): 5; Herbicidal effects Ch [24]: 5; Herbicidal effects Di (Digitaria ciliaris (Di)): 5; Herbicidal effects Ec (barnyardgrass (Ec) [25]): 5; Herbicidal effects Am (slender amaranth (Am) [26]): 5; Herbicidal effects Se (green foxtail (Se) [27]): 5; Herbicidal effects Po (pale smartweed (Po) [28]): 5; Herbicidal effects Ab (China jute (Ab) [29]): 5; Herbicidal effects Ch [30]: 5; Herbicidal effects Am (slender amaranth (Am) [31]): 5"
CCCON=Cc1cc(-c2ccc(C(F)(F)F)n(C)c2=O)c(F)cc1Cl [Compound 1-188],5,5,5,5,5,0,1,5,5,5,1,0,5,5,5,5,5,5,5,5,"Herbicidal effects Ci (rice flatsedge (Ci) [7]; [33]): 5; Herbicidal effects Po (pale smartweed (Po) [8]; [33]): 5; Herbicidal effects Di (Diaitaria ciliaris (Di); [33]): 5; Herbicidal effects Ch [9, 33]: 5; Herbicidal effects Ec (barnyardgrass (Ec) [10]; [33]): 5; Herbicidal effects Am (slender amaranth (Am) [11]; [33]): 5; Herbicidal effects Ch [20]: 5; Herbicidal effects Am (slender amaranth (Am) [21]): 5; Herbicidal effects Ci (rice flatsedge (Ci) [22]): 5; Herbicidal effects Po (pale smartweed (Po) [23]): 5; Herbicidal effects Ch [24]: 5; Herbicidal effects Di (Digitaria ciliaris (Di)): 5; Herbicidal effects Ec (barnyardgrass (Ec) [25]): 5; Herbicidal effects Am (slender amaranth (Am) [26]): 5; Herbicidal effects Se (green foxtail (Se) [27]): 5; Herbicidal effects Po (pale smartweed (Po) [28]): 5; Herbicidal effects Ab (China jute (Ab) [29]): 5; Herbicidal effects Ch [30]: 5; Herbicidal effects Am (slender amaranth (Am) [31]): 5"
